Assay results reported in patent publication US7795261B2, “Substituted 1-piperidin-4-yl-4-pyrrolidin-3-yl-piperazine derivatives and their use as neurokinin antagonists” (Janssen Pharmaceutica NV, priority 2002, dated 2010).

Assays:
Format in all cases: cell-based
NK1 = NK1 (Homo sapiens, UniProt P25103); test: Signal transduction (ST), intracellular Ca++ (FLIPR), NK1 antagonistic activity; conditions: read-out: pIC50 NK1 (converted)
Summary of the method: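 Confluent cells loaded with 2 μM Fluo3 (1 h, 37 °C, probenecid), preincubated 20 min at RT with antagonist concentration range, then agonist added. Peak Ca++ transient read by FLIPR in Krebs buffer pH 7.4; IC50 by non-linear regression.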

NK2 = biological target: T1, NK2 (Homo sapiens, UniProt P21452); test: Signal transduction (ST), intracellular Ca++ (FLIPR), NK2; conditions: read-out: pIC50 NK2 (converted)
T1 sequence (P21452 1-398): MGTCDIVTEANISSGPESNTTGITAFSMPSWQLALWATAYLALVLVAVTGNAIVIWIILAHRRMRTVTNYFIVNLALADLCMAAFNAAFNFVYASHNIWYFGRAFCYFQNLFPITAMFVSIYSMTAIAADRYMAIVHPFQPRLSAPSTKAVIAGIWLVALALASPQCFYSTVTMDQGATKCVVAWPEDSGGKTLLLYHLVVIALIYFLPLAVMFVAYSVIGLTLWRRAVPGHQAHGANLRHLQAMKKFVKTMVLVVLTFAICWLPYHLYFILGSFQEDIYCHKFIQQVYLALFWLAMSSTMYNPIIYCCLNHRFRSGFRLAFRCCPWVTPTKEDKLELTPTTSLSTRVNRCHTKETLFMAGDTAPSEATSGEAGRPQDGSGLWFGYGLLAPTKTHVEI

NK3 = biological target: T2, NK3 (Homo sapiens, UniProt P29371); test: Signal transduction (ST), intracellular Ca++ (FLIPR), NK3; conditions: read-out: pIC50 NK3 (converted)
T2 sequence (P29371 1-465): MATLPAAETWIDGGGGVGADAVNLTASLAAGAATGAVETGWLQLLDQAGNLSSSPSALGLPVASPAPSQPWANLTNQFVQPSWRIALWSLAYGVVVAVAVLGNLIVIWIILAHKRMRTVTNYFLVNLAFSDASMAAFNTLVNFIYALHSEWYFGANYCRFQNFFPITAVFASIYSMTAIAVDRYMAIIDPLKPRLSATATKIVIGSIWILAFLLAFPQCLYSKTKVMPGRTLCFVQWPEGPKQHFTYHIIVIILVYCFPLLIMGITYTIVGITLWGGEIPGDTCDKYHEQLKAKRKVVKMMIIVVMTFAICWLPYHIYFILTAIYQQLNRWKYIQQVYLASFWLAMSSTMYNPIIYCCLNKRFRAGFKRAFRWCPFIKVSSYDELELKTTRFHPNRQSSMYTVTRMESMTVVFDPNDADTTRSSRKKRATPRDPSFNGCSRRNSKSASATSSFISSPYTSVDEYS

NK1, sequence (P25103 whole entry): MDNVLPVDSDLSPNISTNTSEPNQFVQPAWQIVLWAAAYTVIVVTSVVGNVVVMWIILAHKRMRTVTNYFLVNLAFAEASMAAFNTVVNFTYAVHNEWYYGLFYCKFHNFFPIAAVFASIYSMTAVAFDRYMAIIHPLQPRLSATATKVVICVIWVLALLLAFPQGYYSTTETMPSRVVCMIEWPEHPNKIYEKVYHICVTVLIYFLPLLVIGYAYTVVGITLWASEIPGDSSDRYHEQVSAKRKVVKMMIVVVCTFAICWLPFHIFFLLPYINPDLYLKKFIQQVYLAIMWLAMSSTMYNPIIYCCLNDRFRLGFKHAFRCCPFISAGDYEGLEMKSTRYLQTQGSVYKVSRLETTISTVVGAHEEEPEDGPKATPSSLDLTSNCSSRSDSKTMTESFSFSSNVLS

Row | IC50 (NK1) [nM] | IC50 (NK2) [nM] | IC50 (NK3) [nM] | SMILES
1 | 20 | 631 | 2510 | COc1cccc(S(=O)(=O)N2CCC(N3CCN([C@H]4CCN(C(=O)c5cc(C(F)(F)F)cc(C(F)(F)F)c5)[C@H](Cc5ccccc5)C4)CC3)C2)c1 (stereo partly drawn) [Compound 347]
2 | 25.1 | 1000 | 398 | O=C(c1cc(C(F)(F)F)cc(C(F)(F)F)c1)N1CC[C@H](N2CCN(C3CCN(S(=O)(=O)c4ccccc4)C3)CC2)C[C@H]1Cc1ccccc1 (stereo partly drawn) [Compound 75]
3 | 10 | 1580 | 158 | Cc1cc(C(=O)N2CCC(N3CCN([C@H]4CCN(C(=O)c5cc(C(F)(F)F)cc(C(F)(F)F)c5)[C@H](Cc5ccccc5)C4)CC3)C2)n(C)n1 (stereo partly drawn) [Compound 26]
4 | 25.1 | 7940 | 631 | Cc1ccc(C(=O)N2CCC(N3CCN([C@H]4CCN(C(=O)c5cc(C(F)(F)F)cc(C(F)(F)F)c5)[C@H](Cc5ccccc5)C4)CC3)C2)s1 (stereo partly drawn) [Compound 43]
5 | 10 | 3160 | 794 | O=C(C1CCCCC1)N1CCC(N2CCN(C3CCN(C(=O)c4cc(C(F)(F)F)cc(C(F)(F)F)c4)C(Cc4ccc(F)c(F)c4)C3)CC2)C1 (single isomer, unassigned) [Compound 357]
6 | 50.1 | 6310 | 631 | O=C(c1cc(Cl)sc1Cl)N1CCC(N2CCN([C@H]3CCN(C(=O)c4cc(C(F)(F)F)cc(C(F)(F)F)c4)[C@H](Cc4ccccc4)C3)CC2)C1 (stereo partly drawn) [Compound 44]
7 | 100 | 3160 | 631 | O=C(C(NCc1ccccc1)c1ccccc1)N1CCC(N2CCN([C@H]3CCN(C(=O)c4cc(C(F)(F)F)cc(C(F)(F)F)c4)[C@H](Cc4ccccc4)C3)CC2)C1 (stereo partly drawn) [Compound 107]
8 | 7.94 | 1580 | 501 | O=C(C1CC1)N1CC[C@H](N2CCN([C@H]3CCN(C(=O)c4cc(C(F)(F)F)cc(C(F)(F)F)c4)[C@H](Cc4ccc(Cl)c(Cl)c4)C3)CC2)C1 [Compound 312]
9 | 50.1 | 6310 | 6310 | O=C(C1CC1)N1CCC(N2CCN(C3CCN(C(=O)c4cc(C(F)(F)F)cc(C(F)(F)F)c4)C(Cc4cc(F)cc(F)c4)C3)CC2)C1 (stereo not drawn) [Compound 340]
10 | 6.31 | 631 | 3160 | O=C(c1cc(C(F)(F)F)cc(C(F)(F)F)c1)N1CC[C@H](N2CCN(C3CCN(S(=O)(=O)c4ccc(O)cc4)C3)CC2)C[C@H]1Cc1ccccc1 (stereo partly drawn) [Compound 303]
11 | 7.94 | 2000 | 631 | CC(C)(C)C(=O)N1CCC(N2CCN(C3CCN(C(=O)c4cc(C(F)(F)F)cc(C(F)(F)F)c4)C(Cc4ccc(F)c(F)c4)C3)CC2)C1 (single isomer, unassigned) [Compound 364]
12 | 20 | 5010 | 794 | O=C(C1CC1)N1CCC(N2CCN(C3CCN(C(=O)c4cc(C(F)(F)F)cc(C(F)(F)F)c4)C(Cc4ccccc4)C3)CC2)C1 (single isomer, unassigned) [Compound 71]
13 | 25.1 | 6310 | 158 | O=C(c1cc(C(F)(F)F)cc(C(F)(F)F)c1)N1CC[C@H](N2CCN(C3CCN(c4cnccn4)C3)CC2)C[C@H]1Cc1ccccc1 (stereo partly drawn) [Compound 4]
14 | 10 | 316 | 2000 | O=C(c1cc(C(F)(F)F)cc(C(F)(F)F)c1)N1CC[C@H](N2CCN(C3CCN(S(=O)(=O)c4cccc(O)c4)C3)CC2)C[C@H]1Cc1ccccc1 (stereo partly drawn) [Compound 348]
15 | 3.16 | 2000 | 1260 | O=C(C1CCOC1)N1CCC(N2CCN(C3CCN(C(=O)c4cc(C(F)(F)F)cc(C(F)(F)F)c4)C(Cc4ccc(F)c(F)c4)C3)CC2)C1 (single isomer, unassigned) [Compound 270]
16 | 25.1 | 3980 | 200 | O=C(c1ccco1)N1CCC(N2CCN([C@H]3CCN(C(=O)c4cc(C(F)(F)F)cc(C(F)(F)F)c4)[C@H](Cc4ccccc4)C3)CC2)C1 (stereo partly drawn) [Compound 35]
17 | 25.1 | 3980 | 200 | Cc1ccccc1C(=O)N1CCC(N2CCN([C@H]3CCN(C(=O)c4cc(C(F)(F)F)cc(C(F)(F)F)c4)[C@H](Cc4ccccc4)C3)CC2)C1 (stereo partly drawn) [Compound 13]

Row | IC50 (NK1) [nM] | IC50 (NK2) [nM] | IC50 (NK3) [nM] | SMILES
18 | 25.1 | 3160 | 794 | O=C(c1sccc1COCc1ccccc1)N1CCC(N2CCN([C@H]3CCN(C(=O)c4cc(C(F)(F)F)cc(C(F)(F)F)c4)[C@H](Cc4ccccc4)C3)CC2)C1 (stereo partly drawn) [Compound 353]
19 | 50.1 | 63.1 | 794 | O=C(C1CC1)N1CCC(N2CCN([C@H]3CCN(C(=O)c4cc(C(F)(F)F)cc(C(F)(F)F)c4)[C@H](Cc4ccccc4)C3)CC2)C1 (stereo partly drawn) [Compound 72]
20 | 15.8 | 1580 | 200 | O=C(c1ccsc1)N1CCC(N2CCN([C@H]3CCN(C(=O)c4cc(C(F)(F)F)cc(C(F)(F)F)c4)[C@H](Cc4ccccc4)C3)CC2)C1 (stereo partly drawn) [Compound 41]
21 | 15.8 | 631 | 316 | Cc1cc(C(=O)N2CCC(N3CCN([C@H]4CCN(C(=O)c5cc(C(F)(F)F)cc(C(F)(F)F)c5)[C@H](Cc5ccccc5)C4)CC3)C2)n(C(C)(C)C)n1 (stereo partly drawn) [Compound 27]
22 | 7.94 | 2000 | 3980 | CN(C(=O)C1CC1)C(C)(C)C(=O)N1CCC(N2CCN(C3CCN(C(=O)c4cc(C(F)(F)F)cc(C(F)(F)F)c4)C(Cc4ccccc4)C3)CC2)C1 (stereo not drawn) [Compound 310]
23 | 50.1 | 6310 | 5010 | O=C(c1ccsc1)N1CC[C@H](N2CCN([C@@H]3CCN(C(=O)c4cc(C(F)(F)F)cc(C(F)(F)F)c4)[C@@H](Cc4ccc(Cl)c(Cl)c4)C3)CC2)C1 [Compound 251]
24 | 3.16 | 2000 | 251 | O=C(C1CCOC1)N1CCC(N2CCN(C3CCN(C(=O)c4cc(C(F)(F)F)cc(C(F)(F)F)c4)C(Cc4ccc(Cl)c(Cl)c4)C3)CC2)C1 (single isomer, unassigned) [Compound 331]
25 | 25.1 | 3160 | 251 | Cc1onc(-c2c(Cl)cccc2Cl)c1C(=O)N1CCC(N2CCN([C@H]3CCN(C(=O)c4cc(C(F)(F)F)cc(C(F)(F)F)c4)[C@H](Cc4ccccc4)C3)CC2)C1 (stereo partly drawn) [Compound 49]
26 | 10 | 5010 | 1580 | O=C(C1CCOC1)N1CCC(N2CCN(C3CCN(C(=O)c4cc(C(F)(F)F)cc(C(F)(F)F)c4)C(Cc4ccccc4)C3)CC2)C1 (single isomer, unassigned) [Compound 216]
27 | 100 | 794 | 794 | O=C(c1cc(C(F)(F)F)cc(C(F)(F)F)c1)N1CC[C@H](N2CCN(C3CCN(S(=O)(=O)c4sccc4COCc4ccccc4)C3)CC2)C[C@H]1Cc1ccccc1 (stereo partly drawn) [Compound 292]
28 | 20 | 1580 | 158 | O=C(c1c(Cl)cccc1Cl)N1CC[C@@H](N2CCN([C@H]3CCN(C(=O)c4cc(C(F)(F)F)cc(C(F)(F)F)c4)[C@H](Cc4ccc(Cl)c(Cl)c4)C3)CC2)C1 [Compound 265]
29 | 7.94 | 200 | 251 | O=C(c1cc(C(F)(F)F)cc(C(F)(F)F)c1)N1CC[C@H](N2CCN(C3CCN(S(=O)(=O)c4sccc4CO)C3)CC2)C[C@H]1Cc1ccccc1 (stereo partly drawn) [Compound 308]
30 | 12.6 | 3160 | 1580 | O=C(C1CCCCC1)N1CCC(N2CCN(C3CCN(C(=O)c4cc(C(F)(F)F)cc(C(F)(F)F)c4)C(Cc4ccc(F)c(F)c4)C3)CC2)C1 (stereo not drawn) [Compound 358]
31 | 31.6 | 5010 | 2510 | O=C(c1ccccc1F)N1CCC(N2CCN([C@H]3CCN(C(=O)c4cc(C(F)(F)F)cc(C(F)(F)F)c4)[C@H](Cc4ccccc4)C3)CC2)C1 (stereo partly drawn) [Compound 16]
32 | 15.8 | 1260 | 3980 | COc1ccc(S(=O)(=O)N2CCC(N3CCN([C@H]4CCN(C(=O)c5cc(C(F)(F)F)cc(C(F)(F)F)c5)[C@H](Cc5ccccc5)C4)CC3)C2)cc1 (stereo partly drawn) [Compound 280]
33 | 25.1 | 6310 | 251 | Cn1cccc1C(=O)N1CCC(N2CCN([C@H]3CCN(C(=O)c4cc(C(F)(F)F)cc(C(F)(F)F)c4)[C@H](Cc4ccccc4)C3)CC2)C1 (stereo partly drawn) [Compound 24]
34 | 7.94 | 794 | 398 | O=C(C1CCOC1)N1CCC(N2CCN(C3CCN(C(=O)c4cc(C(F)(F)F)cc(C(F)(F)F)c4)C(Cc4ccc(Cl)c(Cl)c4)C3)CC2)C1 (stereo not drawn) [Compound 172]
